According to patent publication US20210030022A1, “NOVEL USE OF SUBSTITUTED CHROMAN-6-OLS” (DSM IP ASSETS B.V., priority 2018, published 2021):

Assays:
Settings in all cases: Oxipres 70° C., 5 bar O2, equimolar to BHT; EV relative to BHT (EV=1)
[1] = Oxipres antioxidant efficacy value (EV) in pet food
Method: (§1) Oxidative stability was assessed using an Oxipres (Mikrolab Aarhus A/S, Hojbjerg, Denmark). The ML OXIPRES® is designed to monitor the oxidation of heterogeneous products. Consumption of oxygen results in a pressure drop which is measured by means of pressure transducers. The samples are heated to accelerate the process and shorten the analysis time (Mikrolab Aarhus 2012).
(§2) Sample weights were 50 g. They were loaded into the Oxipres vessels and placed inside the stainless-steel pressure vessel and sealed. The pressure vessels were purged with pure oxygen and filled to an initial oxygen pressure of 5 bar and maintained at 70° C. during measurement (D. Ying, L. Edin, L. Cheng, L. Sanguansri, M. A. Augustin, LWT—Food Science and Technology 2015, 62, 1105-1111: “Enhanced oxidative stability of extruded product containing polyunsaturated oils.”).
(§3) The oxygen pressure was recorded as function of time. After sample load and temperature rise the pressure in the device is increasing within 10 hours up to the starting pressure. Thereafter it is decreasing. Consequently, the starting pressure is considered as being the pressure after 10 hours. The analysis ends after 130 hours at 70° C. The oxygen consumption ‘O2’ of the tested sample is calculated as follows: […]
(§4) A factor of protection called ‘EV’ (Efficacy Value) was developed to quantify with a relative number (relative to BHT) the antioxidant effect of the tested candidates. EV was calculated as follows:
(§5) EV, being relative to BHT (3,5-di-tert-butyl-4-hydroxy-toluene) (EV=1), makes it possible to compare the antioxidant compounds in a defined feed application.
(§6) Each of the compounds of formulae (1) to (6) were mixed into each matrix 1, 2 or 3 (pet food, poultry meal, fish meal) in an equimolar ratio compared to BHT. Batches of 200 g feed were produced in order to handle a minimum of 30 mg of antioxidant. First, a 1% pre-dilution of the antioxidant with the feed material was made. Then this pre-dilution was added to the final batch, mixed, sieved (1.25 mm sieve) and mixed using a turbula mixer. Thereafter 55 g of the final batch were packed into polyethylene bags, and stored at 4° C. until start of the Oxipres assay. Spare sample were stored at 4° C. Compound of formula (3) was measured in all three matrices. Compound of formula (1) was measured in matrix 1 and 2. Compound of formula (2) was measured in matrix 2. Compounds of formulae (4), (5) and (6) were measured in matrix 3. An efficacy value 0.7 has been considered as acceptable, an efficacy value ≥ the efficacy value of alpha-tocopherol as good, and an efficacy value ≥ the efficacy value of BHT as very good.

[2] = Oxipres antioxidant efficacy value (EV) in poultry meal
Method: as §1, §2, §3, §4, §5, §6

[3] = Oxipres antioxidant efficacy value (EV) in fish meal
Method: as §1, §2, §3, §4, §5, §6

SMILES | EV in pet food [1] | EV in poultry meal [2] | EV in Fish meal [3]
Oc1ccc2c(c1)CCCO2 [Compound of formula (1), chroman-6-ol] | 0.98 | 1.12 | 
Cc1c(C)c2c(c(C)c1O)CC[C@@](C)(CCC[C@H](C)CCC[C@H](C)CCCC(C)C)O2 [alpha-tocopherol, reference compound] | 0.77 | 0.74 | 0.88
Cc1cc(C(C)(C)C)c(O)c(C(C)(C)C)c1 [BHT, 3,5-di-tert-butyl-4-hydroxy-toluene, reference compound] | 1 | 1 | 1
